What was measured:
[1] = Single-dose pharmacokinetic study of legubicin, i.v.; details: free metabolite in plasma; for AUClast / Cmax: n = 3, mean ± SD; for Tmax: n = 3, median [min, max]
Experimental: The pharmacokinetic parameters are outlined in Table 5. […] A power-function model was used to fit the relationship between exposure level (Cmax, AUClast, and AUCINF_obs) parameters and dose, and the power exponent (parameter β) and its 90% confidence interval were obtained (see Table S5).
(§1) The mixture was vortexed for 3 min, and then centrifuged at 22,000× g at 4 °C for 10 min. A final analysis was conducted by injecting 5 µL supernatant into a UHPLC-MS/MS system. Mouse plasma samples were treated in the same way as the rat plasma samples, except for protein precipitation, with 200 µL of 5 pmol/mL IS working solution and injection of 2 µL of supernatant for analysis.
(§2) (1) For the hydrolysis process, an aliquot of 25 µL of rat/mouse plasma was transferred into an Eppendorf tube, and then 50 µL of enzyme digestion buffer and 25 µL of legumain enzyme were placed into the tube. The mixture was vortexed for 1 min, and then incubated in a water bath for 24 h at 37 °C for enzymatic hydrolysis. (2) For the protein precipitation process, 1000 µL of IS working solution (5 pmol/mL and 50 pmol/mL for rat and mouse plasmas, respectively) was added to the enzymatic-hydrolysis solution. Then, the sample was vortexed for 3 min and centrifuged at 22,000× g for 10 min at 4 °C. Analyses were performed on the 3 µL aliquot of the solution used in the UHPLC-MS/MS system.
(§3) Twenty-four rats, inclusive of both sexes, were randomly distributed into four groups. Groups 1, 2, and 3 were single-dose groups, among which the subjects received legubicin via tail intravenous injection (a dose of 1.5, 5, or 15 mg/kg; i.e., 1.36, 4.52, or 13.6 µmol/kg). The fourth group was utilized for a multi-dose study at 5 mg/kg (once-weekly for 4 consecutive weeks). Blood samples of approximately 150 µL were taken from the jugular vein at 0 h (pre-dosing) and at 0.167 h (10 min), 0.5 h, 1 h, 2 h, 4 h, 8 h, 24 h, 48 h, and 72 h post-dosing in the single-dose groups. Samples were also obtained on days 1 and 22 for the multiple-dose group in the same way as for the single-dose groups. However, on days 8 and 15, samples were taken only before and 10 min after administration. The K2EDTA quantities containing blood samples were centrifuged (4 °C, 4000 rpm, 10 min) to collect plasma samples, which were separated into EP tubes and kept at −80 °C until further assay.
(§4) The analysis software (Version 1.5.2, AB Sciex, Vaughan, ON, Canada) was applied to data acquisition and quantification. Pharmacokinetic parameters were calculated with WinNonlin Phoenix (v6.4, Pharsight, Mountain View, CA, USA) with the noncompartmental method, and were presented as mean ± SD (%CV). The “Best fit” strategy in the WinNonlin Phoenix was used for the calculation of elimination half-life and the selection of the elimination phase. Graphs were plotted by GraphPad Software (GraphPad Prism 8.0.2; GraphPad Software, Inc., La Jolla, CA, USA).

[2] = Tissue-distribution study after i.v. legubicin or doxorubicin; details: after i.v. legubicin 9.05 µmol/kg, HT1080 tumor-bearing mice
Experimental: as §1
Each legubicin administration group corresponded to a sampling time-point (4, 16, 32, 48, 96, 168, and 240 h after administration). […] Blood samples and tumor, heart, and kidney tissues were collected at the sampling time points (4, 16, 32, 48, 96, 168, and 240 h after dosing). In addition, liver, spleen, lung, stomach, small intestine, gonads, brain, skeletal muscle, and skin were also collected at 4, 32, 96, and 240 h post-dose time points in the legubicin administration group. All whole-blood samples were processed according to the same processing steps, described above, for rat whole-blood samples.
as §4

[3] = Storage stability of analytes in mouse plasma (method validation); details: for Freeze and thaw stability at -80 °C/ room temperature, Bias / Freeze and thaw stability at -80 °C/ room temperature, Measured concentration / Long term stability at -80 °C (30 days), Bias / Short term stability at room temperature (6 h), Bias / Long term stability at -80 °C (30 days), Measured concentration / Short term stability at room temperature (6 h), Measured concentration: mouse plasma; for Freeze and thaw stability at -80 °C/ room temperature, Bias / Freeze and thaw stability at -80 °C/ room temperature, Measured concentration: 1 cycle; for Freeze and thaw stability at -80 °C/ room temperature, Bias / Long term stability at -80 °C (30 days), Bias / Short term stability at room temperature (6 h), Bias / Auto-sampler stability at 2-8 °C, Bias: n = 6; for Freeze and thaw stability at -80 °C/ room temperature, Measured concentration / Long term stability at -80 °C (30 days), Measured concentration / Short term stability at room temperature (6 h), Measured concentration / Auto-sampler stability at 2-8 °C, Measured concentration: n = 6, mean ± SD; for Auto-sampler stability at 2-8 °C, Bias / Auto-sampler stability at 2-8 °C, Measured concentration: processed mouse plasma, 12 h
Experimental: (§5) By investigating low- and high-concentration stability QCs in six replicates at different storage conditions, autosampler, short-term (bench-top), freeze and thaw, and long-term stability evaluations were conducted.

[4] = Multiple-dose pharmacokinetic study of legubicin, weekly i.v. for 4 weeks; details: free metabolite in plasma, weekly i.v. legubicin 5 mg/kg; for Tmax: median [min, max]; for AUClast / Cmax: n = 3
Experimental: as §1, §2, §3, §4

[5] = Storage stability of analytes in mouse tumor homogenate (method validation)
Experimental: Tumor-bearing mouse tumor/individual tissue samples were homogenized by adding PBS at a ratio of 1:5 (e.g., 1 g of tumor sample to 5 mL of PBS) to make a tumor/tissue homogenate. A quantity of 60 µL of homogenate was taken as a tumor/tissue sample and processed in the same manner as the mouse plasma sample, with the exception of 240 µL of IS working solution used for protein precipitation.
as §5

[6] = Storage stability of analytes in rat plasma (method validation); details: for Auto-Sampler Stability at 2–8 °C (72 h), Bias / Auto-Sampler Stability at 2–8 °C (72 h), Measured Concentration: processed rat plasma; for Auto-Sampler Stability at 2–8 °C (72 h), Bias / Short-Term Stability at Room Temperature (4 h), Bias / Freeze and Thaw Stability at −80 °C/Room Temperature (3 Cycles), Bias / Long-Term Stability at −80 °C (70 days), Bias: n = 6; for Auto-Sampler Stability at 2–8 °C (72 h), Measured Concentration / Freeze and Thaw Stability at −80 °C/Room Temperature (3 Cycles), Measured Concentration / Long-Term Stability at −80 °C (70 days), Measured Concentration / Short-Term Stability at Room Temperature (4 h), Measured Concentration: n = 6, mean ± SD; for Short-Term Stability at Room Temperature (4 h), Bias / Freeze and Thaw Stability at −80 °C/Room Temperature (3 Cycles), Bias / Long-Term Stability at −80 °C (70 days), Bias / Freeze and Thaw Stability at −80 °C/Room Temperature (3 Cycles), Measured Concentration / Long-Term Stability at −80 °C (70 days), Measured Concentration / Short-Term Stability at Room Temperature (4 h), Measured Concentration: rat plasma; for Short-Term Stability at Room Temperature (4 h), Bias: bias from nominal
Experimental: as §5

[7] = female SD rats, single i.v. legubicin 1.5 mg/kg
[8] = female SD rats, single i.v. legubicin 5 mg/kg
[9] = female SD rats, single i.v. legubicin 15 mg/kg
[10] = male SD rats, single i.v. legubicin 1.5 mg/kg
[11] = male SD rats, single i.v. legubicin 5 mg/kg
[12] = male SD rats, single i.v. legubicin 15 mg/kg
[13] = high QC (Leu-DOX 2400, DOX 800 pmol/mL)
[14] = high QC (nominal Leu-DOX 2400, DOX 800 pmol/mL)
[15] = low QC (Leu-DOX 9, DOX 3 pmol/mL)
[16] = low QC (nominal Leu-DOX 9, DOX 3 pmol/mL)
[17] = high QC (Leu-DOX 2400, DOX 800 pmol/mL, conjugate 80 nmol/mL)
[18] = low QC (Leu-DOX 9, DOX 3 pmol/mL, conjugate 0.2 nmol/mL)
[19] = female SD rats, multiple dose (day 22)
[20] = female SD rats, single dose (day 1)
[21] = male SD rats, multiple dose (day 22)
[22] = male SD rats, single dose (day 1)
[23] = high QC (Leu-DOX 4000, DOX 1200 pmol/mL, conjugate 80 nmol/mL)
[24] = high QC (nominal Leu-DOX 4000, DOX 1200 pmol/mL)
[25] = low QC (Leu-DOX 10, DOX 3 pmol/mL, conjugate 0.2 nmol/mL)
[26] = low QC (nominal Leu-DOX 10, DOX 3 pmol/mL)

Which results are given for `COc1cccc2c1C(=O)c1c(O)c3c(c(O)c1C2=O)C[C@@](O)(C(=O)CO)C[C@@H]3O[C@H]1C[C@H](NC(=O)[C@@H](N)CC(C)C)[C@H](O)[C@H](C)O1` [Leu-DOX, N-L-leucyl-doxorubicin]?
AUClast [1, 7]: 0.00644 ± 0.00202 µM·h; Cmax [1, 7]: 21.5 ± 7.78 nM; Tmax [1, 7]: 0.167 [0.167, 0.167] h; AUClast [1, 8]: 0.052 ± 0.0162 µM·h; Cmax [1, 8]: 72.1 ± 16.0 nM; Tmax [1, 8]: 0.167 [0.167, 0.167] h; AUClast [1, 9]: 0.336 ± 0.0625 µM·h; Cmax [1, 9]: 373 ± 63.2 nM; Tmax [1, 9]: 0.167 [0.167, 0.167] h; AUClast [1, 10]: 0.0112 ± 0.0021 µM·h; Cmax [1, 10]: 29.5 ± 2.74 nM; Tmax [1, 10]: 0.167 [0.167, 0.167] h; AUClast [1, 11]: 0.0943 ± 0.0105 µM·h; Cmax [1, 11]: 145 ± 23.9 nM; Tmax [1, 11]: 0.167 [0.167, 0.167] h; AUClast [1, 12]: 1.03 ± 0.244 µM·h; Cmax [1, 12]: 1100 ± 243 nM; Tmax [1, 12]: 0.167 [0.167, 0.167] h; brain penetration of the metabolite [2]: neither the metabolite doxorubicin nor free Leu-Dox permeated the brain; tissue concentration rank order of the metabolite ([2]; n = 6): highest concentration in the liver, followed by the spleen, small intestine, kidney, tumor, lung, skin, gonads, stomach, plasma, skeletal muscle, and heart; Freeze and thaw stability at -80 °C/ room temperature, Bias [3, 13]: -1.8%; Freeze and thaw stability at -80 °C/ room temperature, Measured concentration [3, 14]: 2356.67 ± 81.65 pmol/mL; Freeze and thaw stability at -80 °C/ room temperature, Bias [3, 15]: -1.4%; Freeze and thaw stability at -80 °C/ room temperature, Measured concentration [3, 16]: 8.87 ± 0.24 pmol/mL; Long term stability at -80 °C (30 days), Bias [3, 17]: 9.9%; Short term stability at room temperature (6 h), Bias [3, 17]: -5.3%; Long term stability at -80 °C (30 days), Measured concentration [3, 14]: 2636.67 ± 103.47 pmol/mL; Short term stability at room temperature (6 h), Measured concentration [3, 14]: 2275.00 ± 81.67 pmol/mL; Long term stability at -80 °C (30 days), Bias [3, 18]: 0.9%; Short term stability at room temperature (6 h), Bias [3, 18]: -3.2%; Long term stability at -80 °C (30 days), Measured concentration [3, 16]: 9.08 ± 0.43 pmol/mL; Short term stability at room temperature (6 h), Measured concentration [3, 16]: 8.71 ± 0.32 pmol/mL; Auto-sampler stability at 2-8 °C, Bias [3, 13]: -2.4%; Auto-sampler stability at 2-8 °C, Measured concentration [3, 14]: 2341.67 ± 132.43 pmol/mL; Auto-sampler stability at 2-8 °C, Bias [3, 15]: -3.1%; Auto-sampler stability at 2-8 °C, Measured concentration [3, 16]: 8.72 ± 0.62 pmol/mL; Tmax [4, 19]: 0.167 [0.167, 0.167] h; AUClast [4, 19]: 0.0604 ± 0.00643 µM·h; Cmax [4, 19]: 80.3 ± 8.57 nM; Tmax [4, 20]: 0.167 [0.167, 0.167] h; AUClast [4, 20]: 0.0387 ± 0.00104 µM·h; Cmax [4, 20]: 60.0 ± 6.89 nM; Tmax [4, 21]: 0.167 [0.167, 0.167] h; AUClast [4, 21]: 0.112 ± 0.014 µM·h; Cmax [4, 21]: 141 ± 22.0 nM; Tmax [4, 22]: 0.167 [0.167, 0.167] h; AUClast [4, 22]: 0.081 ± 0.0133 µM·h; Cmax [4, 22]: 111 ± 13.5 nM; Freeze and thaw stability at -80 °C/ room temperature, Bias ([5]; mouse tumor homogenate, 3 cycles, low QC (Leu-DOX 27, DOX 9 pmol/mL), n = 6): 2.6%; Freeze and thaw stability at -80 °C/ room temperature, Measured concentration ([5]; mouse tumor homogenate, 3 cycles, low QC (nominal Leu-DOX 27, DOX 9 pmol/mL), n = 6, mean ± SD): 27.70 ± 1.13 pmol/mL; Short term stability at room temperature (6 h), Bias ([5]; mouse tumor homogenate, low QC (Leu-DOX 27, DOX 9 pmol/mL), n = 6): 2.2%; Short term stability at room temperature (6 h), Measured concentration ([5]; mouse tumor homogenate, low QC (nominal Leu-DOX 27, DOX 9 pmol/mL), n = 6, mean ± SD): 27.58 ± 1.95 pmol/mL; Auto-sampler stability at 2-8 °C, Bias ([5]; processed mouse tumor homogenate, 48h, low QC (Leu-DOX 27, DOX 9 pmol/mL), n = 6): -0.4%; Auto-sampler stability at 2-8 °C, Measured concentration ([5]; processed mouse tumor homogenate, 48h, low QC (nominal Leu-DOX 27, DOX 9 pmol/mL), n = 6, mean ± SD): 26.88 ± 0.94 pmol/mL; Auto-Sampler Stability at 2–8 °C (72 h), Bias [6, 23]: −6.0%; Auto-Sampler Stability at 2–8 °C (72 h), Measured Concentration [6, 24]: 3758.33 ± 422.58 nM; Auto-Sampler Stability at 2–8 °C (72 h), Bias [6, 25]: −0.4%; Auto-Sampler Stability at 2–8 °C (72 h), Measured Concentration [6, 26]: 9.96 ± 0.48 nM; Short-Term Stability at Room Temperature (4 h), Bias [6, 23]: −3.2%; Freeze and Thaw Stability at −80 °C/Room Temperature (3 Cycles), Bias [6, 23]: −5.6%; Long-Term Stability at −80 °C (70 days), Bias [6, 23]: 7.5%; Freeze and Thaw Stability at −80 °C/Room Temperature (3 Cycles), Measured Concentration [6, 24]: 3775.00 ± 329.89 pmol/mL; Long-Term Stability at −80 °C (70 days), Measured Concentration [6, 24]: 4300.00 ± 240.83 pmol/mL; Short-Term Stability at Room Temperature (4 h), Measured Concentration [6, 24]: 3871.67 ± 390.25 pmol/mL; Short-Term Stability at Room Temperature (4 h), Bias [6, 25]: −2.4%; Freeze and Thaw Stability at −80 °C/Room Temperature (3 Cycles), Bias [6, 25]: 2.0%; Long-Term Stability at −80 °C (70 days), Bias [6, 25]: 0.7%; Freeze and Thaw Stability at −80 °C/Room Temperature (3 Cycles), Measured Concentration [6, 26]: 10.20 ± 0.70 pmol/mL; Long-Term Stability at −80 °C (70 days), Measured Concentration [6, 26]: 10.07 ± 1.50 pmol/mL; Short-Term Stability at Room Temperature (4 h), Measured Concentration ([6]; low QC (nominal Leu-DOX 10, DOX 3 pmol/mL), UHPLC-MS/MS): 9.76 ± 0.41 pmol/mL

Reference: article PMC10892419, “UHPLC-MS/MS Assay for Quantification of Legubicin, a Novel Doxorubicin-Based Legumain-Activated Prodrug, and Its Application to Pharmacokinetic and Tissue Distribution Studies” (Molecules, 2024)
